Measured values: patent US20250213496A1, “LIPID NANOPARTICLES AND PREPARATION METHODS AND USE THEREOF” (priority 2022, published 2025)

Experiment: HPLC quantification of retinoid compound in LNP (encapsulation efficiency)
Format: physicochemical
Details: HPLC after diluting LNP with ethanol; AM80 275 nm, ATRA 350 nm
Description: The content of the retinoid compound in the LNP is determined by high performance liquid chromatography (HPLC), including: preparing a gradient dilution standard solution of ATRA or AM80, establishing the HPLC method, sequentially injecting 100 μL of different concentrations of the standard solution, and plotting the standard curve by using the ultraviolet absorption peak areas of different concentrations of ATRA or AM80. The five-component LNP is broken by ethanol with a volume more than 10 times the volume of the LNP, and the volume of each injection is controlled to be 100 μL; the peak area is substituted into the standard curve to obtain the content of ATRA or AM80 in the lipid solution.
Chromatographic conditions: Sunfire C18 column (150 mm×4.6 mm, 5 μm), column temperature (25° C.), mobile phase A (acetonitrile), mobile phase B (0.1 M triethylamine acetate buffer solution with a pH of 7.0), flow rate of 1.0 mL/min, and injection volume of 100 μL each time.
The standard solutions of AM80 with different concentrations were prepared with ethanol, and HPLC injection and gradient elution were performed. […] After diluting LNP with the ethanol, HPLC injection was performed, the AM80 content in the LNP solution was quantified according to the absorption peak area at 275 nm, and an encapsulation efficiency of AM80 is 45%-65%. […]

Row | SMILES | encapsulation efficiency of retinoid compound in LNP
1 | CC1(C)CCC(C)(C)c2cc(NC(=O)c3ccc(C(=O)O)cc3)ccc21 [AM80, tamibarotene] | 45%-65
2 | CC1=C(/C=C/C(C)=C/C=C/C(C)=C/C(=O)O)C(C)(C)CCC1 [ATRA, all-trans-retinoic acid] | 40%-70
